# From US20230203043A1, “NOVEL IMIDAZOPYRAZINE DERIVATIVES” (Hoffmann-La Roche Inc., priority 2020, published 2023)
# Where a name gives a salt, the structure may show the parent alone.
# System: Acinetobacter baumannii ATCC17961
# Assay: Antimicrobial susceptibility testing: 90% growth inhibitory concentration (IC90) determination in Iso-Sensitest broth, OD600 growth
# Assay type: cell-based
# Conditions: Acinetobacter baumannii, ATCC17961, 16 h, read-out: A. baumannii ATCC 17961 IC90 (uM), strain ATCC 17961, OD600 growth over 16 h
# In short: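 Compounds were twofold serially diluted in DMSO across 10 points (e.g. 50 to 0.097 μM final) and inoculated at ~5×10^(5) CFU/ml. Plates incubated at 35±2° C, with OD600 read every 20 minutes over 16 h. IC90 was derived from growth inhibition during logarithmic growth.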
row,SMILES,IC90
1,"CCc1cc(Nc2nccn3c(-c4cn(C)nc4C(F)(F)F)cnc23)ccc1C(=O)NCCNC(=O)[C@@H]1C[C@@H](O)CN1 [Example 445, (2S,4R)-N-[2-[[2-ethyl-4-[[3-[1-methyl-3-(trifluoromethyl)pyrazol-4-yl]imidazo[1,2-a]pyrazin-8-yl]amino]benzoyl]amino]ethyl]-4-hydroxypyrrolidine-2-carboxamide formate]",1.48 µM
2,"CCc1cc(Nc2nccn3c(-c4cn(C)nc4C(F)(F)F)cnc23)ccc1C(=O)NCCNC(=O)[C@@H]1C[C@@](O)(CC)CN1 [Example 446, (2S,4S)-4-ethyl-N-[2-[[2-ethyl-4-[[3-[1-methyl-3-(trifluoromethyl)pyrazol-4-yl]imidazo[1,2-a]pyrazin-8-yl]amino]benzoyl]amino]ethyl]-4-hydroxypyrrolidine-2-carboxamide formate]",2.27 µM
3,"CCc1cc(Nc2nccn3c(-c4cn(C)nc4C(F)(F)F)cnc23)ccc1C(=O)NCCNC(=O)[C@@H]1C[C@](C)(O)CN1 [Example 447, (2S,4S)-N-[2-[[2-ethyl-4-[[3-[1-methyl-3-(trifluoromethyl)pyrazol-4-yl]imidazo[1,2-a]pyrazin-8-yl]amino]benzoyl]amino]ethyl]-4-hydroxy-4-methylpyrrolidine-2-carboxamide formate]",4.19 µM
4,"O=C(c1ccc(Nc2nccn3c(-c4c[nH]nc4C(F)(F)F)cnc23)cc1Cl)N1CCN(C(=O)[C@@H]2C[C@@H](O)CN2)CC1 [Example 448, [2-chloro-4-[[3-[3-(trifluoromethyl)-1H-pyrazol-4-yl]imidazo[1,2-a]pyrazin-8-yl]amino]phenyl]-[4-[(2S,4R)-4-hydroxypyrrolidine-2-carbonyl]piperazin-1-yl]methanone formate]",0.235 µM
5,"O=C(c1ccc(Nc2nccn3c(-c4c[nH]nc4C(F)(F)F)cnc23)cc1Cl)N1CCN(C(=O)C2(O)CCNCC2)CC1 [Example 449, [2-chloro-4-[[3-[3-(trifluoromethyl)-1H-pyrazol-4-yl]imidazo[1,2-a]pyrazin-8-yl]amino]phenyl]-[4-(4-hydroxypiperidine-4-carbonyl)piperazin-1-yl]methanone formate]",0.301 µM
6,"O=C(c1ccc(Nc2nccn3c(-c4c[nH]nc4C(F)(F)F)cnc23)cc1Cl)N1CCN(C(=O)[C@@H]2CCNC[C@@H]2O)CC1 [Example 450, [2-chloro-4-[[3-[3-(trifluoromethyl)-1H-pyrazol-4-yl]imidazo[1,2-a]pyrazin-8-yl]amino]phenyl]-[4-[(3R,4R)-3-hydroxypiperidine-4-carbonyl]piperazin-1-yl]methanone formate]",0.306 µM
7,"O=C(c1ccc(Nc2nccn3c(-c4c[nH]nc4C(F)(F)F)cnc23)cc1Cl)N1CCN(C(=O)[C@H]2CCNC[C@H]2O)CC1 [Example 451, [2-chloro-4-[[3-[3-(trifluoromethyl)-1H-pyrazol-4-yl]imidazo[1,2-a]pyrazin-8-yl]amino]phenyl]-[4-[(3S,4S)-3-hydroxypiperidine-4-carbonyl]piperazin-1-yl]methanone formate]",0.365 µM
8,"O=C(c1ccc(Nc2nccn3c(-c4c[nH]nc4C(F)(F)F)cnc23)cc1Cl)N1CCN(C(=O)[C@H]2C[C@H](O)CN2)CC1 [Example 452, [2-chloro-4-[[3-[3-(trifluoromethyl)-1H-pyrazol-4-yl]imidazo[1,2-a]pyrazin-8-yl]amino]phenyl]-[4-[(2R,4S)-4-hydroxypyrrolidine-2-carbonyl]piperazin-1-yl]methanone formate]",0.401 µM
9,"O=C(c1ccc(Nc2nccn3c(-c4c[nH]nc4C(F)(F)F)cnc23)cc1Cl)N1CCN(C(=O)[C@H]2CCNC[C@@H]2O)CC1 [Example 453, [2-chloro-4-[[3-[3-(trifluoromethyl)-1H-pyrazol-4-yl]imidazo[1,2-a]pyrazin-8-yl]amino]phenyl]-[4-[(3R,4S)-3-hydroxypiperidine-4-carbonyl]piperazin-1-yl]methanone formate]",0.586 µM
10,"O=C(c1ccc(Nc2nccn3c(-c4c[nH]nc4C(F)(F)F)cnc23)cc1Cl)N1CCN(C(=O)[C@@H]2CCNC[C@H]2O)CC1 [Example 454, [2-chloro-4-[[3-[3-(trifluoromethyl)-1H-pyrazol-4-yl]imidazo[1,2-a]pyrazin-8-yl]amino]phenyl]-[4-[(3S,4R)-3-hydroxypiperidine-4-carbonyl]piperazin-1-yl]methanone formate]",0.778 µM
11,"Cc1cc(Nc2nccn3c(-c4cn(C)nc4C(F)(F)F)cnc23)ccc1C(=O)NCCCNC(=O)[C@@H]1C[C@@H](O)CN1 [Example 455, formic acid; (2S,4R)-4-hydroxy-N-[3-[[2-methyl-4-[[3-[1-methyl-3-(trifluoromethyl)pyrazol-4-yl]imidazo[1,2-a]pyrazin-8-yl]amino]benzoyl]amino]propyl]pyrrolidine-2-carboxamide]",1.21 µM
12,"Cc1cc(Nc2nccn3c(-c4cn(C)nc4C(F)(F)F)cnc23)ccc1C(=O)NCCNC(=O)[C@@H]1C[C@@H](O)CN1 [Example 456, formic acid; (2S,4R)-4-hydroxy-N-[2-[[2-methyl-4-[[3-[1-methyl-3-(trifluoromethyl)pyrazol-4-yl]imidazo[1,2-a]pyrazin-8-yl]amino]benzoyl]amino]ethyl]pyrrolidine-2-carboxamide]",2.74 µM
13,"Cc1cc(Nc2nccn3c(-c4c[nH]nc4C(F)(F)F)cnc23)ccc1C(=O)N1CCN(C(=O)C2(O)CCNCC2)CC1 [Example 460, formic acid; [4-(4-hydroxypiperidine-4-carbonyl)piperazin-1-yl]-[2-methyl-4-[[3-[3-(trifluoromethyl)-1H-pyrazol-4-yl]imidazo[1,2-a]pyrazin-8-yl]amino]phenyl]methanone]",0.896 µM
14,"Cc1cc(Nc2nccn3c(-c4c[nH]nc4C(F)(F)F)cnc23)ccc1C(=O)N1CCN(C(=O)[C@@H]2CCNC[C@@H]2O)CC1 [Example 461, formic acid; [4-[(3R,4R)-3-hydroxypiperidine-4-carbonyl]piperazin-1-yl]-[2-methyl-4-[[3-[3-(trifluoromethyl)-1H-pyrazol-4-yl]imidazo[1,2-a]pyrazin-8-yl]amino]phenyl]methanone]",0.926 µM
15,"Cc1cc(Nc2nccn3c(-c4c[nH]nc4C(F)(F)F)cnc23)ccc1C(=O)N1CCN(C(=O)[C@@H]2C[C@](C)(O)CN2)CC1 [Example 462, formic acid; [4-[(2S,4S)-4-hydroxy-4-methylpyrrolidine-2-carbonyl]piperazin-1-yl]-[2-methyl-4-[[3-[3-(trifluoromethyl)-1H-pyrazol-4-yl]imidazo[1,2-a]pyrazin-8-yl]amino]phenyl]methanone]",0.964 µM
16,"Cc1cc(Nc2nccn3c(-c4c[nH]nc4C(F)(F)F)cnc23)ccc1C(=O)N1CCN(C(=O)[C@H]2CCNC[C@H]2O)CC1 [Example 463, formic acid; [4-[(3S,4S)-3-hydroxypiperidine-4-carbonyl]piperazin-1-yl]-[2-methyl-4-[[3-[3-(trifluoromethyl)-1H-pyrazol-4-yl]imidazo[1,2-a]pyrazin-8-yl]amino]phenyl]methanone]",0.998 µM
17,"Cc1cc(Nc2nccn3c(-c4c[nH]nc4C(F)(F)F)cnc23)ccc1C(=O)N1CCN(C(=O)[C@@H]2CCNC[C@H]2O)CC1 [Example 464, formic acid; [4-[(3S,4R)-3-hydroxypiperidine-4-carbonyl]piperazin-1-yl]-[2-methyl-4-[[3-[3-(trifluoromethyl)-1H-pyrazol-4-yl]imidazo[1,2-a]pyrazin-8-yl]amino]phenyl]methanone]",1.26 µM
18,"Cc1cc(Nc2nccn3c(-c4c[nH]nc4C(F)(F)F)cnc23)ccc1C(=O)N1CCN(C(=O)[C@H]2CCNC[C@@H]2O)CC1 [Example 465, formic acid; [4-[(3R,4S)-3-hydroxypiperidine-4-carbonyl]piperazin-1-yl]-[2-methyl-4-[[3-[3-(trifluoromethyl)-1H-pyrazol-4-yl]imidazo[1,2-a]pyrazin-8-yl]amino]phenyl]methanone]",1.62 µM
19,"Cc1cc(Nc2nccn3c(-c4cn(C)nc4C(F)(F)F)cnc23)ccc1C(=O)N1CCN(C(=O)N[C@@H]2CNC[C@H]2O)CC1 [Example 469, formic acid; N-[(3R,4R)-4-hydroxypyrrolidin-3-yl]-4-[2-methyl-4-[[3-[1-methyl-3-(trifluoromethyl)pyrazol-4-yl]imidazo[1,2-a]pyrazin-8-yl]amino]benzoyl]piperazine-1-carboxamide]",0.705 µM

# Same assay, conditions: read-out: A. baumannii ATCC 17961 IC90, strain ATCC 17961, OD600 growth over 16 h
row,SMILES,IC90
1,"Cc1cc(Nc2nccn3c(-c4c[nH]nc4C(F)(F)F)cnc23)ccc1C(=O)N1CCN(C(=O)[C@@H]2C[C@@H](O)CN2)CC1 [Example 459, formic acid; [4-[(2S,4R)-4-hydroxypyrrolidine-2-carbonyl)piperazin-1-yl]-[2-methyl-4-[[3-[3-(trifluoromethyl)-1H-pyrazol-4-yl]imidazo[1,2-a]pyrazin-8-yl]amino]phenyl]methanone]",0.762 µM

# Same assay, conditions: strain ATCC 17961, OD600 growth over 16 h, read-out: A. baumannii ATCC 17961 IC90
row,SMILES,IC90
1,"Cc1cc(Nc2nccn3c(-c4c[nH]nc4C(F)(F)F)cnc23)ccc1C(=O)N1CCN(C(=O)N[C@@H]2CNC[C@H]2O)CC1 [Example 457, formic acid, N-[(3R,4R)-4-hydroxypyrrolidin-3-yl]-4-[2-methyl-4-[[3-[3-(trifluoromethyl)-1H-pyrazol-4-yl]imidazo[1,2-a]pyrazin-8-yl]amino]benzoyl]piperazine-1-carboxamide]",0.442 µM
2,"Cc1cc(Nc2nccn3c(-c4c[nH]nc4C(F)(F)F)cnc23)ccc1C(=O)N1CCN(C(=O)N[C@H]2CNC[C@@H]2O)CC1 [Example 458, formic acid, N-[(3S,4S)-4-hydroxyppyrrolidin-3-yl]-4-[2-methyl-4-[[3-[3-(trifluoromethyl)-1H-pyrazol-4-yl]imidazo[1,2-a]pyrazin-8-yl]amino]benzoyl]piperazine-1-carboxamide]",0.551 µM
